For one data set, the system named is MGC-803. Put plainly: Cytotoxicity against human MGC803 cells after 72 hrs by MTT assay. Format: functional, cell-based. To be noted: MGC-803, 72 h. On the technique in general: Tetrazolium dyes change colour on reduction, which living cells bring about.
The next data set concerns K562. Put plainly: Cytotoxicity against human K562 cells after 72 hrs by MTT assay. Format: functional, cell-based. Particulars: K562, 72 h.
For a further data set, the system named is HCT-15. Put plainly: Cytotoxicity against human HCT15 cells after 72 hrs by MTT assay. Format: functional, cell-based. Particulars: HCT-15, 72 h.
The nature of data set [1]: Cytotoxicity against human HSF cells after 72 hrs by MTT assay. Format: cell-based.
Data set [2] is described as follows: Selectivity index, ratio of IC50 for human HSF cells to IC50 for human HCT15 cells. The format is toxicity. Particulars: HSF cells versus HCT15 cells, read-out: Ratio IC50.
The test system of another data set is Bel7402/5-FU. Nature of the data set: Cytotoxicity against human Bel7402/5-FU cells after 72 hrs by MTT assay. Format: functional, cell-based.
A short description of data set [3]: Cytotoxicity against human […] cells after 72 hrs by MTT assay. Format: functional, cell-based.
Data set [4] in a line: Selectivity ratio of IC50 for human A549 cells to IC50 for human A549/TAX cells. Format: functional.
Data set [5] is described as follows: Selectivity ratio of IC50 for human MCF7 cells to IC50 for human MCF7/ADR cells. The format is functional.
The test system of the next data set is MCF7. Put plainly: Cytotoxicity against human MCF7 cells after 72 hrs by MTT assay. Particulars: MCF7, 72 h. The format is functional, cell-based.
The test system of another data set is NCI/ADR-RES. Put plainly: Cytotoxicity against human MCF7/ADR cells after 72 hrs by MTT assay. Format: functional, cell-based.
Another data set relates to A549/TR. Put plainly: Cytotoxicity against human A549/TAX cells after 72 hrs by MTT assay. Format: functional, cell-based.
Data set [6] is described as follows: Selectivity ratio of IC50 for human […] cells to IC50 for human Bel7402/5-FU cells. Format: functional.
For a further data set, the system named is A549. Put plainly: Cytotoxicity against human A549 cells after 72 hrs by MTT assay. The format is functional, cell-based. Particulars: A549, 72 h.

Regarding `CCC(SCCC(C)C)c1cc(OC)c2c(c1OC)/C(=N/O)C=C/C2=N\O` (stereo not drawn), the half-inhibitory concentration (IC50) in the data set on MGC-803 was 10.4 µM; with K562 it was 3.28 µM; with HCT-15 it was 5.23 µM; in data set [1], over 50 µM. Moreover, in data set [2], the selectivity ratio was over 22.4.
On the same counts, the results for `CCCCCCCCCCCCCCC(SCCC(C)C)c1cc(OC)c2c(c1OC)/C(=N/O)C=C/C2=N\O` (stereo not drawn) are 38.2 µM, 25.7 µM, 22.5 µM, over 50 µM and over 2.22.
On the same counts, the results for `CCCCCCCCCCC(SCCCCC)c1cc(OC)c2c(c1OC)/C(=N/O)C=C/C2=N\O` (stereo not drawn) are 12.1 µM, 7.21 µM, 6.34 µM, over 50 µM and over 7.89.
For `CCCCCCCCCCSC(CCCCCCCCCC)c1cc(OC)c2c(c1OC)/C(=N/O)C=C/C2=N\O` (stereo not drawn), in that order: over 50 µM, 40.3 µM, 35.2 µM, over 50 µM and over 1.42.
On to `CCCCCCC(SCCC(C)C)c1cc(OC)c2c(c1OC)/C(=N/O)C=C/C2=N\O` (stereo not drawn), for which the IC50 with MGC-803 was 1.9 µM; in the data set on K562, 1.28 µM; in the data set with HCT-15 it was 1.04 µM; in [1], over 50 µM. Besides, the selectivity ratio in [2] was over 48.1.
On to `COc1cccc2c1C(=O)c1c(O)c3c(c(O)c1C2=O)C[C@@](O)(C(=O)CO)C[C@@H]3O[C@H]1C[C@H](N)[C@H](O)[C@H](C)O1.Cl` [DOXORUBICIN HYDROCHLORIDE], for which the IC50 was 11 µM with Bel7402/5-FU; 1.32 µM in data set [3]; 0.42 µM in the data set with MCF7; 39.5 µM with NCI/ADR-RES; 42.6 µM in the data set on A549/TR. In addition, the “Ratio IC50” value is 0.04 in [4], 0.01 in data set [5] and 0.12 in [6].
For the molecule `CCCCCCCCC(SCCCCCC)c1cc(OC)c2c(c1OC)/C(=N/O)C=C/C2=N\O` (stereo not drawn), the IC50 is 1.91 µM with MGC-803, 1.14 µM in the data set on K562, 1.08 µM with HCT-15 and over 50 µM in data set [1]. Also, the selectivity ratio in data set [2] was over 46.3.
On the same counts, the results for `CCCCCCCCCC(SCCC(C)C)c1cc(OC)c2c(c1OC)/C(=N/O)C=C/C2=N\O` (stereo not drawn) are 1.54 µM, 0.98 µM, 0.92 µM, over 50 µM and over 54.3.
For `CCCCCCCCCCC(SCCC(C)C)c1cc(OC)c2c(c1OC)/C(=N/O)C=C/C2=N\O` (stereo not drawn), in that order: 8.91 µM, 5.49 µM, 4.75 µM, over 50 µM and over 10.5.
For `CCCCCCCCC(SCC)c1cc(OC)c2c(c1OC)/C(=N/O)C=C/C2=N\O` (stereo not drawn), in that order: 4.39 µM, 2.71 µM, 2.32 µM, over 50 µM and over 21.6.
With `CCCCC(SC(=O)c1cc(OC)c(OC)c(OC)c1)c1cc(OC)c2c(c1OC)/C(=N/O)C=C/C2=N\O` (stereo not drawn), the IC50 in the data set on MGC-803 was 14.7 µM; with K562, 6.35 µM; in the data set with HCT-15, 7.73 µM; in [1], over 50 µM. The selectivity ratio in data set [2] is over 6.47.
On the same counts, the results for `CCCCCCCCCCC(SC(=O)c1cc(OC)c(OC)c(OC)c1)c1cc(OC)c2c(c1OC)/C(=N/O)C=C/C2=N\O` (stereo not drawn) are 4.66 µM, 1.96 µM, 1.39 µM, over 50 µM and over 36.
In the case of `CCCCCCCCC(SC(=O)c1ccco1)c1cc(OC)c2c(c1OC)/C(=N/O)C=C/C2=N\O` (stereo not drawn), the IC50 with MGC-803 is 5.26 µM; with K562 it was 1.38 µM; with HCT-15, 2.42 µM; in data set [1], over 50 µM. Further, the selectivity ratio in [2] was over 20.7.
Take `CC(=O)O[C@H]1C(=O)[C@@]2(C)[C@H]([C@H](OC(=O)c3ccccc3)[C@]3(O)C[C@H](OC(=O)[C@H](O)[C@@H](NC(=O)c4ccccc4)c4ccccc4)C(C)=C1C3(C)C)[C@]1(OC(C)=O)CO[C@@H]1C[C@@H]2O` [PACLITAXEL]: the IC50 in the data set on Bel7402/5-FU is 10.5 µM; in [3] it was 0.65 µM; in the data set with MCF7 it was 0.47 µM; with A549, 0.54 µM; in the data set on NCI/ADR-RES it was 17.7 µM; in the data set with A549/TR it was 24.5 µM. Besides, the figures for the “Ratio IC50” value in data set [4], in data set [5] and in [6] were 0.02, 0.03 and 0.06, respectively.
Turning to `O=c1[nH]cc(F)c(=O)[nH]1` [FLUOROURACIL], the IC50 with Bel7402/5-FU is 936 µM; in [3], 22.9 µM; in the data set on MGC-803, over 50 µM; in the data set on MCF7 it was 26.6 µM; in the data set with A549 it was 28.6 µM; in the data set on K562, 12.2 µM. Besides, the IC50 in the data set on NCI/ADR-RES was 513 µM; in data set [1] it was over 50 µM; in the data set on A549/TR, 112 µM. Further, the “Ratio IC50” value in data set [4] is reported as 0.26; in [5], 0.05; in [6], 0.02. Besides, the selectivity ratio in data set [2] was over 6.64.
Take `CCCCC(SCCC(C)C)c1cc(OC)c2c(c1OC)/C(=N/O)C=C/C2=N\O` (stereo not drawn): the IC50 was 5.96 µM in the data set on MGC-803, 2.03 µM with K562, 2.92 µM in the data set with HCT-15 and over 50 µM in data set [1]. For the same molecule, the selectivity ratio in data set [2] was over 17.1.
On the same counts, the results for `CCCCCCCCC(SC(=O)c1cccs1)c1cc(OC)c2c(c1OC)/C(=N/O)C=C/C2=N\O` (stereo not drawn) are 3.71 µM, 0.95 µM, 1.22 µM, over 50 µM and over 41.
Regarding `CCCCCCC(SC(=O)c1cc(OC)c(OC)c(OC)c1)c1cc(OC)c2c(c1OC)/C(=N/O)C=C/C2=N\O` (stereo not drawn), the IC50 with MGC-803 was 4.92 µM; with K562, 1.52 µM; in the data set with HCT-15 it was 2.21 µM; in [1], over 50 µM. Further, the selectivity ratio in data set [2] was over 22.6.
On to `CCCCCCCCCCC(SCC)c1cc(OC)c2c(c1OC)/C(=N/O)C=C/C2=N\O` (stereo not drawn), for which the concentration for half-maximal inhibition (IC50) is 1.87 µM in the data set on MGC-803, 1.05 µM in the data set on K562, 0.89 µM in the data set with HCT-15 and over 50 µM in [1]. For the same molecule, the selectivity ratio in data set [2] was over 56.2.
For `CCCCCCCCCCC(SCCCCCC)c1cc(OC)c2c(c1OC)/C(=N/O)C=C/C2=N\O` (stereo not drawn), in that order: 18.5 µM, 10.8 µM, 10.3 µM, over 50 µM and over 4.86.
For `CCCCCCCCC(SC(=O)c1ccc(C(F)(F)F)cc1)c1cc(OC)c2c(c1OC)/C(=N/O)C=C/C2=N\O` (stereo not drawn), in that order: 6.34 µM, 4.45 µM, 3.82 µM, over 50 µM and over 13.1.
On the same counts, the results for `CCC(SC(=O)c1cc(OC)c(OC)c(OC)c1)c1cc(OC)c2c(c1OC)/C(=N/O)C=C/C2=N\O` (stereo not drawn) are 30.3 µM, 14.4 µM, 12.5 µM, over 50 µM and over 18.2.
Consider `CCCCCCCCC(c1cc(OC)c2c(c1OC)/C(=N/O)C=C/C2=N\O)S(=O)(=O)CCC(C)C` (stereo not drawn), for which the IC50 was 7.82 µM in the data set on MGC-803, 1.29 µM with K562, 3.89 µM in the data set on HCT-15 and over 50 µM in data set [1]. Moreover, in data set [2], the selectivity ratio is over 12.6.
For `CCCCCCCCCCCCCCC(c1cc(OC)c2c(c1OC)/C(=N/O)C=C/C2=N\O)S(=O)(=O)CCC(C)C` (stereo not drawn), the 50% inhibitory concentration (IC50) in the data set with MGC-803 is 3.53 µM; with K562 it was 1.56 µM; with HCT-15 it was 2.74 µM; in data set [1] it was over 50 µM. Further, the selectivity ratio in [2] was over 7.44.
On the same counts, the results for `CCCCCCCCCCCCC(SCCC(C)C)c1cc(OC)c2c(c1OC)/C(=N/O)C=C/C2=N\O` (stereo not drawn) are 17.4 µM, 10.1 µM, 13 µM, over 50 µM and over 3.86.
Turning to `CC(C)=CC[C@@H](O)C1=CC(=O)c2c(O)ccc(O)c2C1=O` [SHIKONIN], the figures for the IC50 (with K562; in [1]) were 1.02 µM and 1.25 µM, respectively. In data set [2], the selectivity ratio was 1.45.
Take `CCCCCCCCCCCCCCC(SC(=O)c1cc(OC)c(OC)c(OC)c1)c1cc(OC)c2c(c1OC)/C(=N/O)C=C/C2=N\O` (stereo not drawn): the IC50 was 9.68 µM in the data set on MGC-803, 5.83 µM in the data set with K562, 7.98 µM in the data set on HCT-15 and over 50 µM in data set [1]. Moreover, the selectivity ratio in [2] was over 6.27.
For `CCCCCCC(c1cc(OC)c2c(c1OC)/C(=N/O)C=C/C2=N\O)S(=O)(=O)CCC(C)C` (stereo not drawn), in that order: 15.7 µM, 4.25 µM, 7.33 µM, over 50 µM and over 6.82.
On the same counts, the results for `CCCCCCCCCCCCC(SC(=O)c1cc(OC)c(OC)c(OC)c1)c1cc(OC)c2c(c1OC)/C(=N/O)C=C/C2=N\O` (stereo not drawn) are 7.59 µM, 4.41 µM, 5.42 µM, over 50 µM and over 7.85.

For orientation: IC50 means the concentration that inhibits the measured activity by half. A higher IC50 goes with a need for much substance.

The values above are taken from ChEMBL document CHEMBL4480391, “Discovery and synthesis of sulfur-containing 6-substituted 5,8-dimethoxy-1,4-naphthoquinone oxime derivatives as new and potential anti-MDR cancer agents” (Eur J Med Chem, 2019).
